Data on 9 molecules can be found in US6011000A, “Compositions for the treatment of blood disorders” (priority 1995, dated 2000).

The test system of one data set is Friend leukemia cells. The note with it: cited from earlier work.
Another data set concerns fetal globin synthesis. The following applies: cited from earlier work.
The subject of data set [1] is fetal globin expression in K562 human erythroleukemia cells. The following applies: cited from earlier work.
Data set [2] has as its system fetal globin synthesis in tissue culture cells. The following applies: cited from earlier work.
Data set [3] has as its system fetal reticulocyte production. The note with it: cited from earlier work.
Data set [4] deals with γ-globin promoter (-61 construct, K562 cells). It is filed as cell-based, human. An excerpt: Functional assay underscores the important role of FRE-γ1 in γ-globin gene expression in K562 cells. To ascertain whether the FRE elements of the γ-globin promoter that were identified by in vivo footprinting were indeed involved in arginine butyrate inducibility for γ-globin gene expression, a series of 5' deletion constructs of the γ-globin promoter, extending from -256 to -61, were constructed and linked them to the NEO gene. Activity of the NEO gene of these constructs, in response to arginine butyrate treatment, was examined by transfecting these reporters into K562 cells. In K562 cells, a construct driven by 256 bp of promoter was able to direct NEO activity expression, resulting in colony formation. […] Deletion to position -61 reduced promoter activity to 33-40% of the activity seen with the -256 bp construct.

A short description of data set [5]: Hemoglobin and red blood cell levels in a patient with thalassemia intermedia. More on the design: Hgb-A1 / Hgb-A2 / HbF: unit not given here. The note with it: for RBC: 50 mg/kg 3 days/week. In kind it is in vivo, human. As for the experimental part: This patient received isobutyramide at 50 mg/kg for 3 days/week over the course of the study.
For a further data set, the system named is human erythroid cells. The data set can be described thus: DNA fragmentation by flow cytometry (degradation of DNA). It is filed as cell-based. As for the experimental part: Such activities might limit their utility for treatment of anemias such as occur in thalassemia, but alternatively would be useful for anticancer effects. To determine cell viability, human erythroid cells were cultured in the presence and absence of these compounds for 4 days and the amount of DNA fragmentation which occurred was measured.
Flow cytometric determination of DNA profiles and DNA fragmentation were determined. Cytometric analysis was performed with a FACScan (Becton Dickenson Instruments; Columbia, Md.). The data analysis and display were performed using the Cell-Fit software program. Approximately 0.5×10^6 cells were washed twice with PBS and resuspended in 1 ml of 1% sodium citrate, 0.1% Triton X-100 and 50 μg of propidium iodide/ml. Resulting permeabilized cells were kept in the dark at 4° C. overnight before DNA profile or DNA fragmentation analysis (Table 4).

A further data set has as its system MCF-7 cells. As to the kind of experiment: Growth/viability of human mammary carcinoma cells. In kind it is cell-based. The note with it: MCF7, 96 h, 1.0 mM, 4 days, read-out: growth decrease of MCF-7 cells. The method, then: Human mammary carcinoma cells (MCF-7) were cultured alone (controls) and with arginine butyrate or isobutyramide for 4 days. Viability was assayed by FACS after incubation with a fluorescent dye taken up by viable cells (FIG. 6). Growth was decreased by 50% with isobutyramide at 1.0 mM, about 60% with arginine butyrate at 0.5 mM, and greater than 90% with arginine butyrate at 1.0 mM.

Data set [6] has as its system erythroid cells (peripheral blood). The data set can be described thus: Erythroid cell viability by fluorescent staining (Calcein-AM), FIG. 2. In kind it is cell-based, human. The following applies: 0.5 mM, vs untreated controls. As for the experimental part:
FIG. 2 Peripheral blood cell viability after incubation with arginine butyrate, dihydrocinnamic acid, phenoxyacetic acid and butyric acid ethyl ester.
Compositions were tested for the ability to directly stimulate erythroid cell growth. Cell growth stimulation is a useful property for an agent to be used to treat anemias and distinguishes such agents from the cytotoxic drugs currently being tested for treatment of hemoglobinopathies. Cell viability analyses were performed using fluorescent staining to detect living cells. Cells were in log phase of growth in 6-well dishes when used in proliferation assays. For enumeration of living cells, wells were washed once with medium to remove nonadherent or dead cells. Remaining live cells were labeled with 2 μM 2',7'-bis-(carboxyethyl)-5-(and 6)-carboxy-fluorescein acetoxy-methyl ester (Calcein-AM) (Molecular Probes; Eugene, Oreg.) for 20 minutes at 37° C. and washed once. Fluorescence intensity of live cells was read on a CytoFluor 2300 Fluorescence Plate Scanner (Millipore; Bedford, Mass.) at excitation and emission wavelengths of 485 and 530 nm, respectively. The fluorescence intensity of a well was proportional to the number of living cells in the well. Background fluorescence was measured separately for each plate and subtracted from all readings. Each experiment was performed in triplicate or quadruplicate. The standard deviation (SD) of repetitive readings was less than 30% of the mean. Results are depicted in FIG. 2.

The subject of another data set is fetal globin production. The note with it: cited from earlier work.
In data set [7] the test system is system A transport (K562 cells and nucleated erythroblasts from fetal liver). As to the kind of experiment: Effects on system A amino acid transport (3H-MAIB uptake). In kind it is cell-based, human. As for the experimental part:
Inhibition of nutrient uptake is undesirable for treatment of anemias. Methyl aminoisobutyric acid (MAIB) labeled with tritium (^3 H) is normally taken up by system A amino acid transport. Cold (unlabeled) compounds were added to cultures containing ^3 H-MAIB and incubated for 1 hour. Cells were harvested and the amount of ^3 H taken up by cells was quantitated by scintillation counting.

The test system of data set [8] is γ globin mRNA of bone marrow cells. The note with it: cited from earlier work.
The next data set has as its system globin expression. The note with it: cited from earlier work.
Data set [9] has as its system cultured human erythrocytes. The note with it: cited from earlier work.
Setting [10] is: 50 mg/kg, 3 days/week, four month study.

On to `CC(=O)O` [acetate], for which the hemoglobin synthesis entry in the data set on Friend leukemia cells is “induced hemoglobin synthesis”. In addition, in the data set on fetal globin synthesis, the “duration of positive effects” value is on record as “positive effects could only be maintained for very short periods of time”; the “erythrocyte precursor populations and fetal globin synthesis” value is “increased both erythrocyte precursor populations and also fetal globin synthesis”.

For the molecule `CCC(=O)O` [propionate], the hemoglobin synthesis entry in the data set on Friend leukemia cells is listed as “induced hemoglobin synthesis”. Also, the “increase of fetal globin expression” value in data set [1] was “most effective”.

For “GM-CSF: granulocyte/macrophage-colony stimulating factor (GM-CSF)”, the fetal globin synthesis result in data set [2] was “increase fetal globin synthesis in tissue culture cells”.

`Nc1ccn([C@@H]2O[C@H](CO)[C@@H](O)[C@@H]2O)c(=O)n1` [AraC, cytosine arabinoside]: the fetal reticulocyte production result in [3] was “induces fetal reticulocyte production”.

Consider `CC(C)C(N)=O` [IBT, isobutyramide], for which the “induction of construct activity” value in [4] is recorded as 2.5-4 fold. For the same molecule, in data set [5] (setting [10]), the “rise in hematocrit (Hct)” value amounted to 5.8%, the “rise in hemoglobin (Hgb)” value turned out to be 1.6 g/dL, the “rise in reticulocytes (Retics)” value is “about 50%” and the “rise in total red blood cells (RBC)” value is ~10^6 /μl. Further, in data set [5] (50 mg/kg, 3 days/week, four month study, from 6.48), the “total red blood cells (RBC) at end” value is on record as 7.3 10^6 cells/μl. For the same molecule, the “hemoglobin (Hgb) at end” value in data set [5] (50 mg/kg, 3 days/week, four month study, from 10.1) was determined as 11.7 g/dL. The “hematocrit (Hct) at end” value in [5] (50 mg/kg, 3 days/week, four month study, from 31.0%) was 36.9%. In addition, in [5] (Day 1), the HbF worked out at 4.4, the Hct was 31.1%, the Hgb worked out at 10.1 g/dL and the Hgb-A1 was determined as 89.2. Further, in [5] (Day 1), the Hgb-A2 turned out to be 6.4 and the RBC is given as 6.48 10^6 cells/μl. Also, in data set [5] (Day 8), the HbF is 6.4, the Hct is given as 36.2%, the Hgb was determined as 10.8 g/dL and the Hgb-A1 is 89.2. For the same molecule, in data set [5] (Day 8), the Hgb-A2 amounted to 6.2 and the RBC is 6.76 10^6 cells/μl. Also, in data set [5] (Day 15), the HbF was 4.4, the Hct came to 37.0%, the Hgb was 11.1 g/dL and the Hgb-A1 turned out to be 89.2. Also, in data set [5] (Day 15), the Hgb-A2 was 6.4 and the RBC is recorded as 6.89 10^6 cells/μl. Besides, in [5] (Day 22), the HbF turned out to be 0.4, the Hct amounted to 34.1%, the Hgb stood at 10.3 g/dL and the Hgb-A1 amounted to 89.1. Further, in [5] (Day 22), the Hgb-A2 was determined as 6.9 and the RBC is 6.28 10^6 cells/μl. In data set [5] (Day 29), this molecule gave a HbF of 4.4, a Hct of 36.3%, a Hgb of 10.9 g/dL and a Hgb-A1 of 88.6. In data set [5] (Day 29), the Hgb-A2 is listed as 7.0 and the RBC is 6.61 10^6 cells/μl. For the same molecule, in [5] (Day 36), the HbF is recorded as 0.4, the Hct is 33.8%, the Hgb is 10.4 g/dL and the Hgb-A1 is on record as 88.4. In [5] (Day 36), the Hgb-A2 turned out to be 7.6 and the RBC is 6.28 10^6 cells/μl. In [5] (Day 43), the HbF is given as 8.4, the Hct is recorded as 36.2%, the Hgb turned out to be 11.0 g/dL and the Hgb-A1 was 88.7. In [5] (Day 43), the Hgb-A2 is 6.5 and the RBC was 6.38 10^6 cells/μl. Moreover, in data set [5] (Day 55), the HbF came to 5.4, the Hct was 34.0%, the Hgb came out at 11.4 g/dL and the RBC is on record as 6.68 10^6 cells/μl. Further, in [5] (Day 68), the HbF is reported as 1.4, the Hct was determined as 36.4%, the Hgb came out at 11.5 g/dL and the RBC is on record as 6.68 10^6 cells/μl. In data set [5] (Day 96), the Hct was determined as 36.9%, the Hgb amounted to 11.7 g/dL and the RBC is on record as 7.33 10^6 cells/μl. The “fetal globin (HbF)” value in [5] (four month study) is reported as “lack of increased fetal globin (HbF)”. For the same molecule, in [5] (throughout the study), the Hemoglobin-A1 level entry is recorded as “approximately constant” and the hemoglobin-A2 level entry is on record as “approximately constant”. The “proportion of degraded DNA” value with human erythroid cells (1.0 mM to 2.0 mM, untreated 26%) is given as 44%. Moreover, the “Degraded DNA” value in the data set on human erythroid cells (2.0 mM, 4 days, control 26%, 22%) was 34%. Moreover, in the data set with human erythroid cells (DNA fragmentation assays), the “DNA fragmentation / cell viability / DNA integrity” value was “decrease cell viability”. Moreover, in the data set with MCF-7 cells, the inhibition at 1000 µM was 50%. Also, the “erythroid cell growth and proliferation” value in data set [6] is “either had no effect or stimulated erythroid cell growth and proliferation”. Further, the “stimulation of fetal globin production” value in the data set with fetal globin production is reported as “effective in stimulating fetal globin production”. Also, the “system A (neutral) amino acid transport” value in [7] is listed as “inhibited the neutral amino acid transport mechanism”.

In the case of `Nc1ncn([C@@H]2O[C@H](CO)[C@@H](O)[C@H]2O)c(=O)n1` [AZA, 5-azacytidine], the “increase in γ globin mRNA of bone marrow cells” value in data set [8] (continuous intravenous) is reported as “five- to seven-fold increase”. In addition, the “population of stem cells in the bone marrow” value in data set [8] (in vivo) was “significant alterations in the population of stem cells in the bone marrow”.

Regarding `NC(=O)NO` [Hydroxyurea], the “specificity to fetal globin” value with globin expression is reported as “did not appear to be very specific to fetal globin”.

B1: activin: Activin, sometimes referred to as erythroid differentiating factor (EDF) (protein, UniProt P08476 311-426, looked up)
Inhibin beta A chain: GLECDGKVNICCKKQFFVSFKDIGWNDWIIAPSGYHANYCEGECPSHIAGTSGSSLSFHSTVINHYRMRGHSPFANLKSCCVPTKLRPMSMLYYDDGQNIIKKDIQNMIVEECGCS
modifications: Inhibin beta A chain
Turning to B1, the hemoglobin accumulation entry in [9] was “induced hemoglobin accumulation in cultured human erythrocytes”.

B2: inhibin: Inhibin, a disulfide linked hormone of two subunits (protein, UniProt P05111 233-366; P08476 311-426, looked up)
Inhibin alpha chain: STPLMSWPWSPSALRLLQRPPEEPAAHANCHRVALNISFQELGWERWIVYPPSFIFHYCHGGCGLHIPPNLSLPVPGAPPTPAQPYSLLPGAQPCCAALPGTMRPLHVRTTSDGGYSFKYETVPNLLTQHCACI
Inhibin beta A chain: B1 Inhibin beta A chain
Regarding B2, in data set [9], the hemoglobin accumulation entry is reported as “induced hemoglobin accumulation in cultured human erythrocytes”.
